This is an account of results in paper PMC6327263, “Evaluation of Novel 3-Hydroxyflavone Analogues as HDAC Inhibitors against Colorectal Cancer” (Advances in Pharmacological Sciences, 2018).

One data set has as its system HCT116 cells. Briefly: MTT cytotoxicity assay, HCT116. The format is cell-based, human. To be noted: for cytotoxicity in HCT116 relative to inhibitory concentration in normal (Vero) cell line: HCT116 vs Vero; for IC50: Homo sapiens, HCT-116, 48 h, mean ± SEM of three experiments. On the procedure: (§1) Human colorectal carcinoma cell line (HCT116) and African green monkey kidney epithelial cells (VERO) were obtained from National Centre for Cell Science, Pune, MH, India. For their maintenance, the cells were grown in Dulbecco's Modified Eagle's Medium (DMEM) which was supplemented with 10% fetal bovine serum (FBS) and 1 × penicillin/streptomycin at 37°C in CO2 incubator (NU-5501E/G, NuAire Inc., Plymouth, MN, USA) in a humidified atmosphere of 5% CO2 and 95% air.
(§2) Cytotoxicity for the synthesized analogues was determined using MTT assay. In brief, HCT116 and VERO cells were harvested from the tissue culture flask and seeded in sterile 96 well plates at a density of 5000 cells per well. After overnight adherence, different concentrations of test compounds were added and incubated for 48 h. Next, 50 µl of the MTT reagent (HiMedia Laboratories, Mumbai, India) (2 mg/ml in the sterile phosphate buffer saline (PBS)) was added into each well and incubated for 3 h. The formazan crystals formed were solubilized using 100% dimethyl sulfoxide (DMSO), and the optical density was measured at 540 nm using the microplate reader (ELx800, BioTek Instruments Inc., Winooski, VT, USA).

The next data set concerns VERO cells. Briefly: MTT cytotoxicity assay, Vero. The settings on record: Chlorocebus sabaeus, 48 h, mean ± SEM of three experiments. The format is cell-based, African green monkey. On the procedure: as §1, §2
A general note: Tetrazolium assays rely on reduction of a dye to a coloured formazan, in cell work by metabolically active cells.

A further data set concerns DMH-induced colon cancer. In kind it is in vivo, Wistar rats. To be noted: for ACF/5 cm^2 / Adenocarcinoma: 21 days treatment, quercetin, QMJ-2, QMJ-5 100 mg/kg p.o., mean ± SEM of six animals; for ACF/5 cm^2: DMH control 25 ± 2.1; for Adenocarcinoma: count in colon, DMH control 17 ± 1.7; for kidney index / liver index / spleen index: rat, in vivo, po, 100 mg/kg. As to the method:
The two test compounds (QMJ-2 and QMJ-5) and quercetin were suspended in 0.25% w/v sodium carboxymethyl cellulose (CMC) and were administered orally (p.o.). 5-Fluorouracil (5-FU) which was used as a standard was procured in the form of injection and was administered intraperitonially (i.p.).
Colon cancer in experimental animals was induced using the highly specific carcinogen DMH, with few modifications from the previously described procedure. DMH was administered at a dose of 30 mg/kg i.p. once a week for 20 weeks. The incidence of aberrant crypt foci (ACF) and adenocarcinoma were confirmed by sacrificing few animals after 20 weeks of induction with DMH. Furthermore, the animals were randomized into five experimental groups, and various treatments were administered for a period of 21 days followed by the assessment of different parameters in the experimental animals.
(1) Experimental Groups • Group 1: animals received 0.25% CMC in water p.o. • Group 2: animals received 0.25% CMC in water p.o. (DMH control) • Group 3: animals received 5-FU at 10 mg/kg i.p. • Group 4: animals received quercetin at 100 mg/kg p.o. • Group 5: animals received QMJ-2 at 100 mg/kg p.o. • Group 6: animals received QMJ-5 at 100 mg/kg p.o.
(2) ACF Formation and Adenocarcinoma Incidence. The entire colon was excised from the experimental animals and was used to study the incidence of adenocarcinoma. The count and size were noted from each animal. For ACF formation, the distal part of the colon was excised, and the tissue was then cut open and fixed with 10% buffered formalin for 12 h. Following this, the tissue was stained with 0.1% methylene blue in PBS for 5 min. The tissues were then observed under microscope for ACF formation and were calculated as the number of counts/5 cm^2 in colon tissue.
(3) Colon Weight/Length Ratio and Organ Index. Length of the excised colon was measured in centimeters, and weight was measured in g. Colon weight/length ratio was then calculated. For the determination of organ index, major organs including spleen, liver, and kidney of the experimental animals were weighed in g and the respective index was calculated. […]

“And” between values parts separate entries of the source, which are not always exact repeats. Equal entries are not always repeated. Marks after values point to notes of the source that are not given here.

The term IC50 denotes the concentration at which inhibition is half-maximal. A high value points to weaker potency. Take `Cc1ccc(-c2oc3ccccc3c(=O)c2O)cc1` [QMJ-2, 3-Hydroxy-2-(4-methylphenyl)-4H-1-benzopyran-4-one]: in the data set on HCT116 cells, the “cytotoxicity in HCT116 relative to inhibitory concentration in normal (Vero) cell line” value is “two-fold lower concentration” and the IC50 turned out to be 68 ± 2.3 µM. Further, the IC50 in the data set with VERO cells came out at 140 ± 6.8 µM. In the data set with DMH-induced colon cancer (5-FU 10 mg/kg i.p.), the “ACF/5 cm^2” value is 16 ± 2.1 /5 cm^2 and 16 ± 2.1^a /5 cm^2; the Adenocarcinoma stood at 14 ± 1.3. Moreover, the colon weight/length ratio result with DMH-induced colon cancer (compared with DMH control, 5-FU 10 mg/kg i.p., others 100 mg/kg p.o., 21 days) is reported as “significant decrease”. In the data set on DMH-induced colon cancer, the kidney index result is on record as “no significant change”, the liver index result is “Significant reduction” and the spleen index entry is reported as “significant decrease”.
With `Cc1ccc(-c2oc3cc(C)ccc3c(=O)c2O)cc1` [QMJ-5, 3-Hydroxy-7-methyl-2-(4-methylphenyl)-4H-1-benzopyran-4-one], in the data set on HCT116 cells, the “cytotoxicity in HCT116 relative to inhibitory concentration in normal (Vero) cell line” value is on record as “two-fold lower concentration” and the IC50 is 27.4 ± 1.8 µM. In addition, the IC50 in the data set with VERO cells is 55.6 ± 3.8 µM. In the data set on DMH-induced colon cancer (5-FU 10 mg/kg i.p.), the “ACF/5 cm^2” value was 15 ± 2.6 /5 cm^2 and 15 ± 2.6^a /5 cm^2; the Adenocarcinoma is reported as 11 ± 0.8^a. In the data set with DMH-induced colon cancer, the kidney index result is given as “no significant change” and the liver index entry was “Significant reduction”.
`O=c1c(O)c(-c2ccc(O)c(O)c2)oc2cc(O)cc(O)c12` [Quercetin, quercetin, reference compound] yielded an IC50 with HCT116 cells of 108 ± 1.2 µM. This compound also displayed an IC50 with VERO cells of 202 ± 7.5 µM. In addition, in the data set with DMH-induced colon cancer (5-FU 10 mg/kg i.p.), the “ACF/5 cm^2” value is 19 ± 2.6 /5 cm^2 and the Adenocarcinoma was 15 ± 1.1. In the data set with DMH-induced colon cancer, the spleen index result is on record as “significant decrease”.
